From patent publication US11759461B2, “Small molecule inhibitors of cancer stem cells and mesenchymal cancer types” (The Scripps Research Institute, priority 2017, dated 2023)
Read-outs that look alike come from different tables or passages of the source.

Test system: FOXC2-expressing HMLER cells
Test: Cell Titer Glo viability of FOXC2-HMLER cells (high throughput screen and 10-point response)
Format: cell-based
Conditions: Homo sapiens, 72 hours
Method: For high throughput screening, FOXC2-HMLER and HMLER cells were plated at 10^3 cells per well in white 384-well plates in 50 μL of MEGM medium (Lonza). Cells were allowed to attach for one hour before compound was transferred to each well as a DMSO solution using a 100 nL pintool head affixed to a PerkinElmer FX instrument. After 72-hour incubation, 30 μL of a Cell Titer Glo solution (diluted 1:6 in water, Promega) was dispensed into each well and luminance values were recorded using an Envision plate reader. […] All other miniaturized, selective viability experiments were performed as above using the indicated growth medium.
More specifically, in the high throughput screening assay above, each cell line was plated at 1,000 cells per well in 384-well plates, treated for 72 hours with 2 μM of test compound, and the viability of each line was determined in parallel by Cell Titer Glo (Promega) luminance measurements.

[1] = scored relative to parent compound 1, read-out: Activity Score, inhibition of FOXC2-expressing HMLER cells by Formula I compounds
[2] = scored relative to parent compound 2, read-out: Activity Score, inhibition of FOXC2-expressing HMLER cells by Formula II compounds

Compound | IC50 [1] | IC50 [2]
CC1CC(C)CN(c2cnnc3c(Cl)cccc23)C1 (stereo not shown) [Compound 1A] | 1 to 20 µM | –
Cc1ccc(-c2cc3c(N4CCN(c5ccccc5)CC4)nccn3n2)cc1C [Compound 1B] | 1 to 20 µM | –
Cc1ccc(N2CCN(c3nccn4nc(-c5ccccc5)cc34)CC2)cc1 [Compound 1C] | 1 to 20 µM | –
Clc1cccc(N2CCN(c3cnc4ccccc4n3)CC2)c1 [Compound 1D] | 1 to 20 µM | –
Clc1ccc(N2CCN(c3ccccc3Cl)CC2)nn1 [Compound 1E] | > 20 µM | –
COc1ccc(N2CCN(c3nccn4nc(-c5ccc(Cl)cc5)cc34)CC2)cc1 [Compound 1F] | > 20 µM | –
Clc1ccc2c(N3CCNCC3)ccnc2c1 [Compound 1G] | > 20 µM | –
Clc1ccc(N2CCN(c3cnnc4c(Cl)cccc34)CC2)cc1Cl [Compound 1SRAA] | 1 to 20 µM | –
Clc1ccc(Cl)c(N2CCN(c3cnnc4c(Cl)cccc34)CC2)c1 [Compound 1SRAB] | 1 to 20 µM | –
FC(F)(F)Oc1cccc(N2CCN(c3cnnc4c(Cl)cccc34)CC2)c1 [Compound 1SRAC] | 1 to 20 µM | –
Clc1cccc(N2CCN(c3cnnc4c(Cl)cccc34)CC2)n1 [Compound 1SRAD] | 1 to 20 µM | –
Clc1nccc(N2CCN(c3cnnc4c(Cl)cccc34)CC2)n1 [Compound 1SRAE] | > 20 µM | –
Clc1cncc(N2CCN(c3cnnc4c(Cl)cccc34)CC2)n1 [Compound 1SRAF] | > 20 µM | –
Fc1cc(Cl)cc(N2CCN(c3cnnc4c(Cl)cccc34)CC2)c1 [Compound 1SRAG] | < 1 µM | –
COc1cc(Cl)cc(N2CCN(c3cnnc4c(Cl)cccc34)CC2)c1 [Compound 1SRAH] | < 0.234 µM | –
Cc1cc(Cl)cc(N2CCN(c3cnnc4c(Cl)cccc34)CC2)c1 [Compound 1SRAI] | < 1 µM | –
FC(F)(F)c1cc(Cl)cc(N2CCN(c3cnnc4c(Cl)cccc34)CC2)c1 [Compound 1SRAJ] | 1 to 20 µM | –
N#Cc1cc(Cl)cc(N2CCN(c3cnnc4c(Cl)cccc34)CC2)c1 [Compound 1SRAK] | < 1 µM | –
Cc1c(Cl)cc(N2CCN(c3cnnc4c(Cl)cccc34)CC2)cc1Cl [Compound 1SRAL] | 1 to 20 µM | –
Cc1c(S(=O)(=O)N2CCN(c3cnnc4c(Cl)cccc34)CC2)cnn1C(F)F [Compound 1SRAM] | > 20 µM | –
Clc1cc(Cl)cc(N2C[C@@H]3C[C@H]2CN3c2cnnc3c(Cl)cccc23)c1 [Compound 1SRAN] | < 1 µM | –

Compound | IC50 [1] | IC50 [2]
Clc1cc(Cl)cc(N2CCN(c3cnnc4c(Cl)cccc34)CC2)c1 [Compound 1SRH] | < 0.234 µM | –
Fc1c(Cl)cc(N2CCN(c3cnnc4c(Cl)cccc34)CC2)cc1Cl [Compound 1SRI] | 1 to 20 µM | –
Fc1ccc(N2CCN(c3cnnc4c(Cl)cccc34)CC2)cc1Cl [Compound 1SRJ] | 1 to 20 µM | –
Fc1c(Cl)cccc1N1CCN(c2cnnc3c(Cl)cccc23)CC1 [Compound 1SRK] | 1 to 20 µM | –
CC1CN(c2cc(Cl)cc(Cl)c2)CCN1c1cnnc2c(Cl)cccc12 (stereo not shown) [Compound 1SRL] | < 1 µM | –
CC1CN(c2cnnc3c(Cl)cccc23)CCN1c1cc(Cl)cc(Cl)c1 (stereo not shown) [Compound 1SRM] | < 1 µM | –
Clc1cc(Cl)cc(N2CCN(c3cnnc4ccccc34)CC2)c1 [Compound 1SRN] | < 1 µM | –
Fc1cccc(N2CCN(c3cnnc4c(Cl)cccc34)CC2)c1 [Compound 1SRO] | 1 to 20 µM | –
FC(F)(F)c1cccc(N2CCN(c3cnnc4c(Cl)cccc34)CC2)c1 [Compound 1SRP] | 1 to 20 µM | –
FC(F)(F)Sc1cccc(N2CCN(c3cnnc4c(Cl)cccc34)CC2)c1 [Compound 1SRQ] | 1 to 20 µM | –
COc1cccc(N2CCN(c3cnnc4c(Cl)cccc34)CC2)c1 [Compound 1SRT] | < 1 µM | –
NC(=O)c1cccc(N2CCN(c3cnnc4c(Cl)cccc34)CC2)c1 [Compound 1SRV] | 1 to 20 µM | –
Clc1ccccc1N1CCN(c2cnnc3c(Cl)cccc23)CC1 [Compound 1SRW] | 1 to 20 µM | –
Clc1cccc2c(N3CCN(c4ccccc4)CC3)cnnc12 [Compound 1SRX] | > 20 µM | –
Clc1ccc(N2CCN(c3cnnc4c(Cl)cccc34)CC2)cc1 [Compound 1SRY] | > 20 µM | –
Clc1cccc(N2CCN(c3cnnc4c(Cl)cccc34)CC2)c1Cl [Compound 1SRZ] | > 20 µM | –
COc1ccc(NCc2cc3cc4c(cc3n(CC(=O)Nc3ccccc3)c2=O)OCCO4)cc1 [Compound 2AA] | – | 1 to 20 µM
COc1cc2cc(CNc3ccc(C)cc3)c(=O)n(CC(=O)Nc3cc(C)ccc3C)c2cc1OC [Compound 2AB] | – | 1 to 20 µM
COc1ccc2cc(CNc3ccc(C)cc3)c(=O)n(CC(=O)Nc3ccc(C)cc3C)c2c1 [Compound 2AC] | – | 1 to 20 µM
CCc1ccccc1NC(=O)Cn1c(=O)c(CNc2ccccc2)cc2cc3c(cc21)OCCO3 [Compound 2AD] | – | 1 to 20 µM
CCc1ccc(NC(=O)Cn2c(=O)c(CNc3ccccc3)cc3cc4c(cc32)OCCO4)cc1 [Compound 2AE] | – | 1 to 20 µM

Compound | IC50 [1] | IC50 [2]
CCc1ccccc1NC(=O)Cn1c(=O)c(CNc2ccc(C)cc2)cc2cc3c(cc21)OCCO3 [Compound 2AF] | – | 1 to 20 µM
CCOc1ccccc1NC(=O)Cn1c(=O)c(CNc2ccccc2)cc2ccc(OC)cc21 [Compound 2AG] | – | 1 to 20 µM
COc1ccc2cc(CNc3ccc(C)cc3)c(=O)n(CC(=O)Nc3ccc(F)cc3)c2c1 [Compound 2AH] | – | 1 to 20 µM
CCc1ccccc1NC(=O)Cn1c(=O)c(CNc2ccc(OC)cc2)cc2cc3c(cc21)OCCO3 [Compound 2AI] | – | 1 to 20 µM
COc1ccc(NCc2cc3ccc(C)cc3n(CC(=O)Nc3ccccc3C)c2=O)cc1OC [Compound 2AJ] | – | 1 to 20 µM
Cc1ccc(NCc2cc3cc4c(cc3n(CC(=O)Nc3ccccc3C)c2=O)OCCO4)cc1 [Compound 2AK] | – | 1 to 20 µM
CCc1ccc(NCc2cc3cc4c(cc3n(CC(=O)Nc3ccc(OC)cc3)c2=O)OCCO4)cc1 [Compound 2AL] | – | 1 to 20 µM
Cc1ccc(NCc2cc3cc4c(cc3n(CC(=O)Nc3c(C)cccc3C)c2=O)OCCO4)cc1 [Compound 2AM] | – | 1 to 20 µM
CCc1ccc(NCc2cc3ccc(OC)cc3n(CC(=O)Nc3cc(C)ccc3C)c2=O)cc1 [Compound 2AN] | – | 1 to 20 µM
CCc1ccc(NCc2cc3ccc(OC)cc3n(CC(=O)Nc3c(C)cc(C)cc3C)c2=O)cc1 [Compound 2AO] | – | 1 to 20 µM
CCc1ccc(NCc2cc3ccc(OC)cc3n(CC(=O)Nc3ccccc3CC)c2=O)cc1 [Compound 2AP] | – | 1 to 20 µM
CCOC(=O)c1ccc(NC(=O)Cn2c(=O)c(CNc3ccccc3)cc3ccc(OC)cc32)cc1 [Compound 2AQ] | – | > 20 µM
COc1ccc2cc(CNc3ccccc3)c(=O)n(CC(=O)NCc3ccc(Cl)cc3)c2c1 [Compound 2AR] | – | > 20 µM
CCc1ccc(NCc2cc3cc(OC)c(OC)cc3n(CC(=O)Nc3ccc(CC)cc3)c2=O)cc1 [Compound 2AS] | – | > 20 µM
COc1ccc(NCc2cc3ccc(OC)cc3n(CC(=O)Nc3ccccc3F)c2=O)cc1 [Compound 2AT] | – | > 20 µM
COc1ccc2cc(CNc3ccccc3)c(=O)n(CC(=O)NCc3ccccc3)c2c1 [Compound 2AU] | – | > 20 µM
COc1ccc(NCc2cc3ccc(OC)cc3n(CC(=O)Nc3ccc(C(C)C)cc3)c2=O)cc1 [Compound 2AV] | – | > 20 µM
COc1ccc2cc(CNc3ccc(OC)c(OC)c3)c(=O)n(CC(=O)Nc3ccccc3C)c2c1 [Compound 2AW] | – | > 20 µM
COc1ccc2cc(CNc3ccccc3)c(=O)n(CC(=O)NCCc3ccccc3)c2c1 [Compound 2AX] | – | > 20 µM
